Test results: PubChem BioAssay AID1963979 (Molecular Pharmacology Branch, DTP, NCI, 2024)

System: 361931-004-R-J1-PDC multicell spheroid viability
Assay: Anticancer human tumor 361931-004-R-J1-PDC patient-derived colon adenocarcinoma cell line growth inhibition [PI3K]
Settings: for IC50: curve of first compound; for viability, T/C: stronger effect = lower value
How it was run: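 Stroma-containing spheroids: tumor line, pooled-donor HUVEC, hMSC. Treatments: targeted agents with PI3K inhibitors. Dosing: clinically relevant, half-log spacing, 10 microM ceiling without known Cmax. Read-out: cell viability.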

[1] = second compound 0.0316 µM, first compound 0.000316 µM
[2] = second compound 0.0316 µM, first compound 0.001 µM
[3] = second compound 0.0316 µM, first compound 0.00316 µM
[4] = second compound 0.0316 µM, first compound 0.01 µM
[5] = second compound 0.0316 µM, first compound 0.0316 µM
[6] = second compound 0.0316 µM, first compound 0.1 µM
[7] = second compound 0.1 µM, first compound 0.000316 µM
[8] = second compound 0.1 µM, first compound 0.001 µM
[9] = second compound 0.1 µM, first compound 0.00316 µM
[10] = second compound 0.1 µM, first compound 0.01 µM
[11] = second compound 0.1 µM, first compound 0.0316 µM
[12] = second compound 0.1 µM, first compound 0.1 µM
[13] = second compound 0.316 µM, first compound 0.000316 µM
[14] = second compound 0.316 µM, first compound 0.001 µM
[15] = second compound 0.316 µM, first compound 0.00316 µM
[16] = second compound 0.316 µM, first compound 0.01 µM
[17] = second compound 0.316 µM, first compound 0.0316 µM
[18] = second compound 0.316 µM, first compound 0.1 µM
[19] = second compound 1 µM, first compound 0.000316 µM
[20] = second compound 1 µM, first compound 0.001 µM
[21] = second compound 1 µM, first compound 0.00316 µM
[22] = second compound 1 µM, first compound 0.01 µM
[23] = second compound 1 µM, first compound 0.0316 µM
[24] = second compound 1 µM, first compound 0.1 µM
[25] = second compound 3.16 µM, first compound 0.000316 µM
[26] = second compound 3.16 µM, first compound 0.001 µM
[27] = second compound 3.16 µM, first compound 0.00316 µM
[28] = second compound 3.16 µM, first compound 0.01 µM
[29] = second compound 3.16 µM, first compound 0.0316 µM
[30] = second compound 3.16 µM, first compound 0.1 µM
[31] = second compound 10 µM, first compound 0.000316 µM
[32] = second compound 10 µM, first compound 0.001 µM
[33] = second compound 10 µM, first compound 0.00316 µM
[34] = second compound 10 µM, first compound 0.01 µM
[35] = second compound 10 µM, first compound 0.0316 µM
[36] = second compound 10 µM, first compound 0.1 µM
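Also: spheroids exposed to agents for seven days before readout.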

CC(=O)c1c(C)c2cnc(Nc3ccc(N4CCNCC4)cn3)nc2n(C2CCCC2)c1=O + CC(Nc1ncnc2nc[nH]c12)c1cc2cccc(Cl)c2c(=O)n1-c1ccccc1
IC50 (second compound 0.0316 µM): > 100 nM | IC50 (second compound 0.1 µM): > 100 nM | IC50 (second compound 0.316 µM): > 100 nM | IC50 (second compound 1 µM): > 100 nM | IC50 (second compound 3.16 µM): > 100 nM | IC50 (second compound 10 µM): > 100 nM | viability, T/C [1]: 98.3% | viability, T/C [2]: 103% | viability, T/C [3]: 97.5% | viability, T/C [4]: 97.2% | viability, T/C [5]: 102% | viability, T/C [6]: 93.2% | viability, T/C [7]: 103% | viability, T/C [8]: 103% | viability, T/C [9]: 98.4% | viability, T/C [10]: 104% | viability, T/C [11]: 99.5% | viability, T/C [12]: 98.4% | viability, T/C [13]: 108% | viability, T/C [14]: 97.7% | viability, T/C [15]: 105% | viability, T/C [16]: 97.9% | viability, T/C [17]: 103% | viability, T/C [18]: 97.5% | viability, T/C [19]: 101% | viability, T/C [20]: 100% | viability, T/C [21]: 101% | viability, T/C [22]: 105% | viability, T/C [23]: 108% | viability, T/C [24]: 89% | viability, T/C [25]: 96.2% | viability, T/C [26]: 100% | viability, T/C [27]: 97.2% | viability, T/C [28]: 93.7% | viability, T/C [29]: 100% | viability, T/C [30]: 81.3% | viability, T/C [31]: 92.7% | viability, T/C [32]: 107% | viability, T/C [33]: 96.5% | viability, T/C [34]: 94.1% | viability, T/C [35]: 101% | viability, T/C [36]: 80.5%

Cn1ncnc1[C@H]1c2n[nH]c(=O)c3cc(F)cc(c23)N[C@@H]1c1ccc(F)cc1 + Cc1nc(NC(=O)N2CCCC2C(N)=O)sc1-c1ccnc(C(C)(C)C(F)(F)F)c1
IC50 (second compound 0.0316 µM): > 100 nM | IC50 (second compound 0.1 µM): > 100 nM | IC50 (second compound 0.316 µM): > 100 nM | IC50 (second compound 1 µM): > 100 nM | IC50 (second compound 3.16 µM): > 100 nM | IC50 (second compound 10 µM): 48.4 nM | viability, T/C [1]: 98% | viability, T/C [2]: 93.1% | viability, T/C [3]: 97.3% | viability, T/C [4]: 93% | viability, T/C [5]: 79.8% | viability, T/C [6]: 85.3% | viability, T/C [7]: 109% | viability, T/C [8]: 93.6% | viability, T/C [9]: 94.5% | viability, T/C [10]: 93.2% | viability, T/C [11]: 86.5% | viability, T/C [12]: 76.8% | viability, T/C [13]: 98.2% | viability, T/C [14]: 86.1% | viability, T/C [15]: 81.7% | viability, T/C [16]: 81.8% | viability, T/C [17]: 83.5% | viability, T/C [18]: 80.8% | viability, T/C [19]: 87.3% | viability, T/C [20]: 73.4% | viability, T/C [21]: 84.5% | viability, T/C [22]: 79.4% | viability, T/C [23]: 90.1% | viability, T/C [24]: 70.3% | viability, T/C [25]: 70.4% | viability, T/C [26]: 81.8% | viability, T/C [27]: 77.4% | viability, T/C [28]: 66.9% | viability, T/C [29]: 72.6% | viability, T/C [30]: 62.2% | viability, T/C [31]: 62.2% | viability, T/C [32]: 54.5% | viability, T/C [33]: 54% | viability, T/C [34]: 56.6% | viability, T/C [35]: 47.9% | viability, T/C [36]: 49.2%

CC(C)NCC(C(=O)N1CCN(c2ncnc3c2C(C)CC3O)CC1)c1ccc(Cl)cc1 (stereo unspecified) + COc1c(OCCCN2CCOCC2)ccc2c3n(c(=NC(=O)c4cnc(N)nc4)nc12)CCN3
IC50 (second compound 0.00316 µM): 3300 nM | IC50 (second compound 0.01 µM): 2880 nM | IC50 (second compound 0.0316 µM): 2370 nM | IC50 (second compound 0.1 µM): 1680 nM | IC50 (second compound 0.316 µM): 161 nM | IC50 (second compound 1 µM): < 31.6 nM | viability, T/C (second compound 0.00316 µM, first compound 0.0316 µM): 102% | viability, T/C (second compound 0.00316 µM, first compound 0.1 µM): 97.8% | viability, T/C (second compound 0.00316 µM, first compound 0.316 µM): 95.2% | viability, T/C (second compound 0.00316 µM, first compound 1 µM): 86.9% | viability, T/C (second compound 0.00316 µM, first compound 3.16 µM): 50.9% | viability, T/C (second compound 0.00316 µM, first compound 10 µM): 19.5% | viability, T/C (second compound 0.01 µM, first compound 0.0316 µM): 99% | viability, T/C (second compound 0.01 µM, first compound 0.1 µM): 100% | viability, T/C (second compound 0.01 µM, first compound 0.316 µM): 90.9% | viability, T/C (second compound 0.01 µM, first compound 1 µM): 78.7% | viability, T/C (second compound 0.01 µM, first compound 3.16 µM): 46.9% | viability, T/C (second compound 0.01 µM, first compound 10 µM): 26.6% | viability, T/C [5]: 95% | viability, T/C [6]: 89.8% | viability, T/C (second compound 0.0316 µM, first compound 0.316 µM): 94.2% | viability, T/C (second compound 0.0316 µM, first compound 1 µM): 70.6% | viability, T/C (second compound 0.0316 µM, first compound 3.16 µM): 43.6% | viability, T/C (second compound 0.0316 µM, first compound 10 µM): 25.7% | viability, T/C [11]: 89.9% | viability, T/C [12]: 76.9% | viability, T/C (second compound 0.1 µM, first compound 0.316 µM): 71% | viability, T/C (second compound 0.1 µM, first compound 1 µM): 60.5% | viability, T/C (second compound 0.1 µM, first compound 3.16 µM): 39% | viability, T/C (second compound 0.1 µM, first compound 10 µM): 21.9% | viability, T/C [17]: 58% | viability, T/C [18]: 52.3% | viability, T/C (second compound 0.316 µM, first compound 0.316 µM): 47.4% | viability, T/C (second compound 0.316 µM, first compound 1 µM): 36.8% | viability, T/C (second compound 0.316 µM, first compound 3.16 µM): 34.5% | viability, T/C (second compound 0.316 µM, first compound 10 µM): 21.3% | viability, T/C [23]: 26% | viability, T/C [24]: 21.8% | viability, T/C (second compound 1 µM, first compound 0.316 µM): 20.8% | viability, T/C (second compound 1 µM, first compound 1 µM): 20.4% | viability, T/C (second compound 1 µM, first compound 3.16 µM): 17.6% | viability, T/C (second compound 1 µM, first compound 10 µM): 11.6%
